What was measured:
human CB2 receptor = target: T1, human CB2 receptor (Homo sapiens, UniProt P34972); test: CB2 radioligand competitive binding assay ([3H]CP 55,940 displacement)
T1 construct: membranes prepared in house
Description: Compounds of the present disclosure were tested for CB1 receptor binding affinity and for CB2 receptor binding affinity. As used herein, “binding affinity” is represented by the IC50 value, which was experimentally determined as described herein. The lower the IC50 value the higher the binding affinity. A compound of the present disclosure may be said to have “binding selectivity” If it has a higher binding affinity for one receptor compared to the other.
The membranes were prepared from CHO-K1 (Chinese hamster ovary) cells stably transfected with the human CB2 receptor (Cat. #ES-111-C; Perkin Elmer, Boston, MA). The cells were grown adherently and maintained in Ham's F12 medium containing 10% fetal bovine serum (FBS), penicillin, streptomycin and geneticin (G418) at 37° C. in a humid atmosphere of 5% CO2 following the manufacturer's Instructions.
For membrane preparation the cells were washed with PBS and scraped off the plates in cold homogenization buffer (25 mM HEPES (pH 7.4), 2 mM EDTA) containing protease inhibitor cocktail (Sigma Cat. #P8340). The cell suspension was homogenized with a Pro-PK-01200D Polytron Homogenizer (Pro Scientific) and then centrifuged for 30 min at 120,000×g. The supernatant was discarded and the pellet was re-suspended in the homogenization buffer and stored at −80° C. until the time of use.
In this experiment, 3H radiolabeled CP 55,940, i.e. [3H]CP 55,940 (Perkin Elmer, Boston, MA), was used as a radioligand for the CB2 receptor to determine the binding affinity of compounds for the CB2 receptor (Scheme 8; above).
The competition binding experiments (single dose and dose-response) were performed by incubating 0.6 nM of [3H]CP55,940 (specific activity 101 Ci/mmol, Perkin Elmer) and different concentrations of compounds disclosed herein with membranes prepared as above from CHO-K1 cells expressing human CB2 receptor (1 μg of protein/well), 50 mM Tris-HCl (pH 7.4), 5 mM MgCl2, 1 mM CaCl2, and 2 mg/mL BSA.
For the single dose experiments, the compound stocks (usually 10 mM in DMSO) were diluted to working stocks in the binding buffer to give the final compound concentrations of 10 μM and 1 μM. For the dose-response experiments the test compounds were sequentially diluted to provide the desired concentration range for the IC50 determination. In each case the compounds were pre-incubated with the membrane for 20 min, before adding the radioligand.
After incubation with the radioligand for 60 min at 37° C., the incubation was terminated by rapid filtration of assay mixture through MultiScreen®HTS^+ 96-well filter plates (Millipore, Cat. #MSFCNXB), pre-soaked for 60 min with 50 mM Tris-HCl (pH 7.4) containing 0.33% polyethylenimine (PEI). The nonspecific binding (NSB) was determined in the presence of 10 μM unlabeled CP55,940. After drying the filter plate at 50° C. for at least 60 min, the filter-bound radioactivity was determined by scintillation spectrometry using the 1450 MicroBeta Plate Counter (Perkin Elmer, Boston, MA). From the dose-response experiments, the IC50 values were determined (see Table 1, CB2 IC50).

human CB1 receptor [1] = target: T2, human CB1 receptor (Homo sapiens, UniProt P21554); test: biochemical; format: binding; design: membranes prepared in house
human CB1 receptor [2] = target: T2, human CB1 receptor; test: PathHunter β-Arrestin functional assay, CB1 receptor, agonist mode; format: cell-based; design: membranes prepared in house
Source text: In the PathHunter® β-Arrestin system from DiscoveRx (Eurofins, Fremont, CA), a small peptide, the ProLink™ (PK), is fused to the intracellular sequence of a GPCR target, and a complementing peptide, the enzyme acceptor (EA) fragment, is fused to β-arrestin. After binding to its specific ligand, the GPCR target recruits β-arrestin, forcing the complementation of the two β-galactosidase enzyme fragments (EA and PK) to produce a functional β-galactosidase enzyme. The enzyme activity, and thus the amount of ligand bound to the GPCR, is detected with a single addition of a reagent cocktail to lyse the cells and produce a chemiluminescent signal before being analyzed using a traditional plate reader.
PathHunter® CHO-K1 CNR1 β-Arrestin cells (DiscoverRx, cat. Number 93-0959C2) stably expressing CB1 receptor (CB1R) were grown in Ham's F12 medium curtaining 10% fetal bovine serum (FBS), 1% penicillin/streptomycin, 300 μg/mL Hygromycin B and 800 μg/mL geneticin (G418) and maintained in 37° C. incubators at 5% CO2. […]
The incubation was terminated by adding the detection reagent (19 parts of 1% CHAPS, 5 parts Emerald-II and 1 part Galacton-Star), equivalent to 50% of the assay volume to each wells. Plates were incubated for 1 hour in the dark at room temperature, followed by chemiluminescence detection using a microplate reader.
Data were analysed by generating nonlinear regression curves. […]

human CB1 receptor [3] = target: T2, human CB1 receptor; test: CB1 receptor AequoScreen functional assay (agonist mode); format: cell-based; design: Perkin Elmer (host cells ES-000-A24); host or cells: CHO-K1 aeq/G16 (transient, FuGene)
Source text: Aequorin is a photoprotein originating from the jellyfish Aequorea Victoria. The apo-enzyme (apoaequorin) requires a hydrophobic prosthetic group, coelenterazine, to be converted to aequorin, the active form of the enzyme. […] Upon calcium binding, aequorin oxidizes coelenterazine into coelenteramide with the production of CO2 and emission of light. The consumption of aequorin is proportional to the calcium concentration. Therefore, measurement of the light emitted upon oxidation of coelenterazine is a reliable tool for measurement of intracellular calcium flux. […]
FuGene from Promega (Catalog number selected: E2691) was used to transiently transfect CHO-K1 aeq/G16 cells with an expression vector containing the open reading frame (ORF) expression clone for CNR1 (NM_016083.4; bacterial stock; Gencopeia Inc.) at a ratio of 15 ng of plasmid DNA to 480,000 cells. […]
After incubation, the mixture was diluted 3-fold in assay media and kept under constant gentle agitation at room temperature. […] Cells were injected automatically over the serial diluted test compounds and CP55,940 using a liquid dispenser, and the luminescence was recorded over 10-30 seconds in a microplate reader.
Sigmoidal dose-response curves were generated using average Luminescent Counts Per Second (LCPS) which were recorded immediately after cells were mixed with compounds in agonist mode.

T2 sequence (P21554 whole entry): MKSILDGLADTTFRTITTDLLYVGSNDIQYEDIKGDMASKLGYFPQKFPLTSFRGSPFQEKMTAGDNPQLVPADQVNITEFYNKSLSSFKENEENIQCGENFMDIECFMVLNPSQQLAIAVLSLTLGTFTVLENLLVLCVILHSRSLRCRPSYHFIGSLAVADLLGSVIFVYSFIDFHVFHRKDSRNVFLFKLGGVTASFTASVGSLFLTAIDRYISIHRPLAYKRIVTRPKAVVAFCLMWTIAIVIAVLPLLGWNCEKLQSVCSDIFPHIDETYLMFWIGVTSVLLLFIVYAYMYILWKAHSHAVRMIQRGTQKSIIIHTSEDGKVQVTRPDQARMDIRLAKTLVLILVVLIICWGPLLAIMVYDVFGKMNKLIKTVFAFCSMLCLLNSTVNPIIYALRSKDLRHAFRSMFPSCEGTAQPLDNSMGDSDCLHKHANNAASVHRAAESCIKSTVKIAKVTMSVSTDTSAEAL
T1 sequence (P34972 whole entry): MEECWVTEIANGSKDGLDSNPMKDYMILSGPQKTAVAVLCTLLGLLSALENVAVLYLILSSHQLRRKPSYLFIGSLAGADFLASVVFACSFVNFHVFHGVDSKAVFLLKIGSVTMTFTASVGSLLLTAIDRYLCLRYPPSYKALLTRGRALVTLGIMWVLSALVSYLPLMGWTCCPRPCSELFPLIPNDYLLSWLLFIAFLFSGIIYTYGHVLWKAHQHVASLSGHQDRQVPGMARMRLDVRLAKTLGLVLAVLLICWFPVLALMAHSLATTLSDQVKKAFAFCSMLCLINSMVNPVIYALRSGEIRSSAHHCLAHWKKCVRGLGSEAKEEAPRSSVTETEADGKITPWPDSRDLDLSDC

**Q.** How did the IC50 (human CB2 receptor; [3H]CP 55,940 displacement, CHO-K1 membranes expressing human CB2 receptor) turn out when `CCCCCc1cc(O)c(C2C=C(C)CCC2)c(O)c1S(=O)(=O)N(CC)CC` (stereo not shown) [Compound 62c, N,N-diethyl-2,6-dihydroxy-5′-methyl-4-pentyl-1′,2′,3′,4′-tetrahydro-[1,1′-biphenyl]-3-sulfonamide] was run?
**A.** < 100 nM

**Q.** What about the “Selectivity CB2” value (human CB2 receptor; fold difference in binding between CB1 and CB2, shown in the column of the receptor with higher affinity, 1.00 in both = about same affinity) of the same molecule?
**A.** 31.82 fold

**Q.** What about the IC50 (human CB1 receptor [1]) of the same molecule?
**A.** 100 to 990 nM

**Q.** What about the EC50 (human CB1 receptor [2]) of the same molecule?
**A.** ~499 nM

**Q.** And the “relative efficacy in comparison to CP55,940” value (human CB1 receptor [2]; agonist mode, PathHunter CHO-K1 CNR1 β-Arrestin cells)?
**A.** about 56%

**Q.** And the EC50 (human CB1 receptor [3])?
**A.** ~502 nM

**Q.** What about the “relative efficacy in comparison to CP55,940” value (human CB1 receptor [3]; AequoScreen, agonist mode, CHO-K1 aeq/G16 cells transfected with CNR1) of the same molecule?
**A.** about 117%

Reference: patent US12012373B2, “Cannabinoid derivatives” (CANOPY GROWTH CORPORATION, priority 2019, dated 2024)
